From US6858230B1, “Process for producing medicinal composition of basic hydrophobic medicinal compound” (Shionogi & Co., Ltd., priority 1999, dated 2005)

Legend:
[1] = Dispersibility of a basic compound in a suspension; assay type: physicochemical; settings: suspension with DL-malic acid, neutralized with NaOH (Examples 3-1, 4, 5)
Method: 50 g of PVP K30 was dissolved to 800 g of purified water. These aqueous solution were acidified by DL-Malic acid. The compound (I-1) was suspended in the acidic solution under stirring. The suspension was neutralized with 115 g of 13% NaOH aqueous solution to give a suspension. In place of the compound (I-1) in Example 3-1, pindolol was used. In place of the compound (I-1) in Example 3-1, noscapine was used. Dispersibility of the compound (I-1) in an acidic suspension obtained in Example 3-1 to 3-4 including various kinds of acids was examined. Dispersibility was observed by the naked eyes at the time of preparation of an suspension. Dispersibility of active ingredient in the suspension obtained in Example 3-1, 4 and 5 was examined in accordance with Experiment 4.

[2] = Dispersibility of active ingredient in acidic suspension with various kinds of acids; assay type: physicochemical; settings: at preparation
Method: 50 g of PVP K30 was dissolved to 800 g of purified water. These aqueous solution were acidified by DL-Malic acid. The compound (I-1) was suspended in the acidic solution under stirring. The suspension was neutralized with 115 g of 13% NaOH aqueous solution to give a suspension. In place of malic acid in Example 3-1, citric acid was used. In place of malic acid in Example 3-1, phosphoric acid was used. No acid was used. Dispersibility of the compound (I-1) in an acidic suspension obtained in Example 3-1 to 3-4 including various kinds of acids was examined. Dispersibility was observed by the naked eyes at the time of preparation of an suspension.

Row | Dispersibility of drug substance [1] | Dispersibility of drug substance ([2]; suspension with citric acid (Example 3-2)) | Dispersibility of drug substance ([2]; suspension with malic acid (Example 3-1)) | Dispersibility of drug substance ([2]; suspension with no acid (Reference Example 3-4)) | Dispersibility of drug substance ([2]; suspension with phosphoric acid (Example 3-3)) | Compound
1 | Good | Good | Good | Formation | Good | CC(C)c1nc(COC(N)=O)n(Cc2ccncc2)c1Sc1cc(Cl)cc(Cl)c1 [Compound (I-1), 5-(3,5-dichlorophenyl)thio-4-isopropyl-1-(4-pyridyl)methyl-1H-imidazol-2-ylmethyl carbamate]
2 | Good | – | – | – | – | COc1ccc2c(c1OC)C(=O)O[C@@H]2[C@H]1c2c(cc3c(c2OC)OCO3)CCN1C [Noscapine, noscapine]
3 | Good | – | – | – | – | CC(C)NCC(O)COc1cccc2[nH]ccc12 (stereo not shown) [Pindolol, pindolol]
